Assay results published in PubChem BioAssay (NCI).
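GI50 is the concentration that inhibits growth by half. TGI denotes the concentration required for complete inhibition of growth.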

Experiments:
Assay in all cases: growth of human tumour cells (NCI), 384-well format
HCT-15 colon = tested on: HCT-15 colon
OVCAR-5 ovarian = tested on: OVCAR-5 ovarian
SK-MEL-2 melanoma = tested on: SK-MEL-2 melanoma
OVCAR-8 ovarian = tested on: OVCAR-8 ovarian
NCI-H322M lung = tested on: NCI-H322M lung
MALME-3M melanoma = tested on: MALME-3M melanoma
HL-60(TB) leukemia = tested on: HL-60(TB) leukemia
SNB-75 CNS = tested on: SNB-75 CNS
UO-31 renal = tested on: UO-31 renal
NCI-H23 lung = tested on: NCI-H23 lung
KM12 colon = tested on: KM12 colon
SNB-19 CNS = tested on: SNB-19 CNS
HCT-116 colon = tested on: HCT-116 colon
UACC-62 melanoma = tested on: UACC-62 melanoma
UACC-257 melanoma = tested on: UACC-257 melanoma
SF-539 CNS = tested on: SF-539 CNS
MDA-MB-435 melanoma = tested on: MDA-MB-435 melanoma
MDA-MB-468 breast = tested on: MDA-MB-468 breast
NCI/ADR-RES ovarian = tested on: NCI/ADR-RES ovarian
TK-10 renal = tested on: TK-10 renal
HS 578T breast = tested on: HS 578T breast
LOX IMVI melanoma = tested on: LOX IMVI melanoma
MCF7 breast = tested on: MCF7 breast
T-47D breast = tested on: T-47D breast
HOP-62 NSCLC = tested on: HOP-62 NSCLC
OVCAR-4 ovarian = tested on: OVCAR-4 ovarian
IGROV1 ovarian = tested on: IGROV1 ovarian
RXF 393 renal = tested on: RXF 393 renal
A549 NSCLC = tested on: A549 NSCLC
COLO 205 colon = tested on: COLO 205 colon
SN12C renal = tested on: SN12C renal
NCI-H460 NSCLC = tested on: NCI-H460 NSCLC
HCC-2998 colon = tested on: HCC-2998 colon
NCI-H522 lung = tested on: NCI-H522 lung
CCRF-CEM leukemia = tested on: CCRF-CEM leukemia
RPMI-8226 leukemia = tested on: RPMI-8226 leukemia
MOLT-4 leukemia = tested on: MOLT-4 leukemia
SW-620 colon = tested on: SW-620 colon
CAKI-1 renal = tested on: CAKI-1 renal
SK-MEL-28 melanoma = tested on: SK-MEL-28 melanoma
EKVX NSCLC = tested on: EKVX NSCLC
ACHN renal = tested on: ACHN renal
SF-268 CNS = tested on: SF-268 CNS
HOP-92 NSCLC = tested on: HOP-92 NSCLC
SK-MEL-5 melanoma = tested on: SK-MEL-5 melanoma
786-0 renal = tested on: 786-0 renal
U251 glioblastoma = tested on: U251 glioblastoma
SK-OV-3 ovarian = tested on: SK-OV-3 ovarian
M14 melanoma = tested on: M14 melanoma
NCI-H226 lung = tested on: NCI-H226 lung
DU-145 prostate = tested on: DU-145 prostate
OVCAR-3 ovarian = tested on: OVCAR-3 ovarian
SF-295 CNS = tested on: SF-295 CNS
MDA-MB-231 breast = tested on: MDA-MB-231 breast
HT29 colon = tested on: HT29 colon
A498 renal = tested on: A498 renal
BT-549 breast = tested on: BT-549 breast
K-562 leukemia = tested on: K-562 leukemia
PC-3 prostate = tested on: PC-3 prostate

For C#CC(F)(F)[C@]1(O)CC[C@H]2[C@@H]3CCC4=CC(=O)CCC4=C3[C@@H](c3ccc(C4CC4)cc3)C[C@@]21C, the GI50 (HCT-15 colon) was 245 nM, the TGI (HCT-15 colon) was 2300 nM and the GI50 (OVCAR-5 ovarian) was 574 nM. For the same compound, the TGI (OVCAR-5 ovarian) was 2410 nM, the GI50 (SK-MEL-2 melanoma) was 64.6 nM and the TGI (SK-MEL-2 melanoma) was 244 nM. The GI50 (OVCAR-8 ovarian) was 61.6 nM, the TGI (OVCAR-8 ovarian) was 934 nM and the GI50 (NCI-H322M lung) was 2480 nM. It also gave a TGI (NCI-H322M lung) of 6890 nM, a GI50 (MALME-3M melanoma) of less than 10 nM and a TGI (MALME-3M melanoma) of less than 10 nM. It also gave a GI50 (HL-60(TB) leukemia) of less than 10 nM, a TGI (HL-60(TB) leukemia) of less than 10 nM and a GI50 (SNB-75 CNS) of 14.2 nM. For the same compound, the TGI (SNB-75 CNS) was 28.2 nM, the GI50 (UO-31 renal) was less than 10 nM and the TGI (UO-31 renal) was less than 10 nM. It also gave a GI50 (NCI-H23 lung) of less than 10 nM, a TGI (NCI-H23 lung) of less than 10 nM and a GI50 (KM12 colon) of 12 nM. For the same compound, the TGI (KM12 colon) was 25.5 nM, the GI50 (SNB-19 CNS) was 3020 nM and the TGI (SNB-19 CNS) was 8610 nM. For the same compound, the GI50 (HCT-116 colon) was 1760 nM, the TGI (HCT-116 colon) was 3350 nM and the GI50 (UACC-62 melanoma) was 17.6 nM. The TGI (UACC-62 melanoma) was 32.8 nM, the GI50 (UACC-257 melanoma) was 459 nM and the TGI (UACC-257 melanoma) was 2110 nM. The GI50 (SF-539 CNS) was 17.2 nM, the TGI (SF-539 CNS) was 32 nM and the GI50 (MDA-MB-435 melanoma) was 1250 nM. For the same compound, the TGI (MDA-MB-435 melanoma) was 3510 nM, the GI50 (MDA-MB-468 breast) was less than 10 nM and the TGI (MDA-MB-468 breast) was less than 10 nM. The GI50 (NCI/ADR-RES ovarian) was 12 nM, the TGI (NCI/ADR-RES ovarian) was 44.8 nM and the GI50 (TK-10 renal) was 21.4 nM. For the same compound, the TGI (TK-10 renal) was 104 nM, the GI50 (HS 578T breast) was 377 nM and the TGI (HS 578T breast) was 1510 nM. It also gave a GI50 (LOX IMVI melanoma) of less than 10 nM, a TGI (LOX IMVI melanoma) of less than 10 nM and a GI50 (MCF7 breast) of 1480 nM. The TGI (MCF7 breast) was 7970 nM, the GI50 (T-47D breast) was 80.6 nM and the TGI (T-47D breast) was 1770 nM. For the same compound, the GI50 (HOP-62 NSCLC) was less than 10 nM, the TGI (HOP-62 NSCLC) was 41.1 nM and the GI50 (OVCAR-4 ovarian) was less than 10 nM. The TGI (OVCAR-4 ovarian) was less than 10 nM, the GI50 (IGROV1 ovarian) was less than 10 nM and the TGI (IGROV1 ovarian) was less than 10 nM. The GI50 (RXF 393 renal) was less than 10 nM, the TGI (RXF 393 renal) was less than 10 nM and the GI50 (A549 NSCLC) was 39.5 nM. It also gave a TGI (A549 NSCLC) of 190 nM, a GI50 (COLO 205 colon) of 1320 nM and a TGI (COLO 205 colon) of 4580 nM. It also gave a GI50 (SN12C renal) of 2010 nM, a TGI (SN12C renal) of 4060 nM and a GI50 (NCI-H460 NSCLC) of 1850 nM. For the same compound, the TGI (NCI-H460 NSCLC) was 3410 nM, the GI50 (HCC-2998 colon) was 23.9 nM and the TGI (HCC-2998 colon) was 50.7 nM. The GI50 (NCI-H522 lung) was less than 10 nM, the TGI (NCI-H522 lung) was less than 10 nM and the GI50 (CCRF-CEM leukemia) was less than 10 nM. For the same compound, the TGI (CCRF-CEM leukemia) was less than 10 nM, the GI50 (RPMI-8226 leukemia) was less than 10 nM and the TGI (RPMI-8226 leukemia) was 18.6 nM. For the same compound, the GI50 (MOLT-4 leukemia) was 17.4 nM, the TGI (MOLT-4 leukemia) was 31.6 nM and the GI50 (SW-620 colon) was 334 nM. The TGI (SW-620 colon) was 1390 nM, the GI50 (CAKI-1 renal) was less than 10 nM and the TGI (CAKI-1 renal) was less than 10 nM. It also gave a GI50 (SK-MEL-28 melanoma) of 2030 nM, a TGI (SK-MEL-28 melanoma) of 4340 nM and a GI50 (EKVX NSCLC) of less than 10 nM. For the same compound, the TGI (EKVX NSCLC) was 10.9 nM, the GI50 (ACHN renal) was less than 10 nM and the TGI (ACHN renal) was less than 10 nM. It also gave a GI50 (SF-268 CNS) of 11.2 nM, a TGI (SF-268 CNS) of 25.8 nM and a GI50 (HOP-92 NSCLC) of less than 10 nM. It also gave a TGI (HOP-92 NSCLC) of less than 10 nM, a GI50 (SK-MEL-5 melanoma) of 1700 nM and a TGI (SK-MEL-5 melanoma) of 3100 nM. It also gave a GI50 ([…]-0 renal) of 10.7 nM, a TGI (786-0 renal) of 24 nM and a GI50 (U251 glioblastoma) of 97.5 nM. The TGI (U251 glioblastoma) was 444 nM, the GI50 (SK-OV-3 ovarian) was 34.2 nM and the TGI (SK-OV-3 ovarian) was 111 nM. For the same compound, the GI50 (M14 melanoma) was 37.6 nM, the TGI (M14 melanoma) was 146 nM and the GI50 (NCI-H226 lung) was 218 nM. For the same compound, the TGI (NCI-H226 lung) was 2000 nM, the GI50 (DU-145 prostate) was 1540 nM and the TGI (DU-145 prostate) was 3180 nM. For the same compound, the GI50 (OVCAR-3 ovarian) was less than 10 nM, the TGI (OVCAR-3 ovarian) was less than 10 nM and the GI50 (SF-295 CNS) was 30.2 nM. The TGI (SF-295 CNS) was 83.4 nM, the GI50 (MDA-MB-231 breast) was less than 10 nM and the TGI (MDA-MB-231 breast) was less than 10 nM. It also gave a GI50 (HT29 colon) of 267 nM, a TGI (HT29 colon) of 1180 nM and a GI50 (A498 renal) of 13.2 nM. The TGI (A498 renal) was 26.1 nM, the GI50 (BT-549 breast) was 20.3 nM and the TGI (BT-549 breast) was 42.2 nM. The GI50 (K-562 leukemia) was 111 nM, the TGI (K-562 leukemia) was 320 nM and the GI50 (PC-3 prostate) was 19.6 nM. It also gave a TGI (PC-3 prostate) of 51.8 nM.
